Results published in PubChem BioAssay (NCI).
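Compound exposure: 48 hours, 5 concentrations, 96-well plates. At the GI50, growth is halved. Definition used: TGI = concentration required for complete inhibition of growth.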

How the values were obtained:
Assay in all cases: NCI-60 cell line screen, 48 h
ACHN renal = test system: ACHN renal
SN12C renal = test system: SN12C renal
HCT-116 colon = test system: HCT-116 colon
A549 NSCLC = test system: A549 NSCLC
M14 melanoma = test system: M14 melanoma
MCF7 breast = test system: MCF7 breast
SF-295 CNS = test system: SF-295 CNS
TK-10 renal = test system: TK-10 renal
SF-268 CNS = test system: SF-268 CNS
SR leukemia = test system: SR leukemia

Row | Structure (SMILES) | GI50 (ACHN renal) | TGI (ACHN renal) | GI50 (SN12C renal) | TGI (SN12C renal) | GI50 (HCT-116 colon) | TGI (HCT-116 colon) | GI50 (A549 NSCLC) | TGI (A549 NSCLC) | GI50 (M14 melanoma) | TGI (M14 melanoma) | GI50 (MCF7 breast) | GI50 (SF-295 CNS) | TGI (SF-295 CNS) | GI50 (TK-10 renal) | TGI (TK-10 renal) | GI50 (SF-268 CNS) | TGI (SF-268 CNS) | GI50 (SR leukemia) | TGI (SR leukemia) | TGI (MCF7 breast)
1 | O=C(NC(=S)Nc1ccc(Cl)cc1)c1ccccc1 | > 100 µM | > 100 µM | > 100 µM | > 100 µM | > 100 µM | > 100 µM | > 100 µM | > 100 µM | > 100 µM | > 100 µM | 2.85 µM | > 65.1 µM | > 100 µM | > 100 µM | > 100 µM | 76 µM | > 100 µM | > 100 µM | > 100 µM | –
2 | CC[N+](CC)(CC)CCCn1c2c(c3ccccc3c1=O)C(=O)c1ccccc1-2 | 3.07 µM | 26.8 µM | 5.59 µM | > 100 µM | 1.95 µM | 9.27 µM | 6.27 µM | 35.8 µM | 3.1 µM | 12.1 µM | 2.89 µM | 7.38 µM | 57.9 µM | 1.01 µM | > 100 µM | 3.42 µM | 24.4 µM | 3.56 µM | > 100 µM | 7.4 µM
3 | O=C(NOCC1CC1)c1ccc(F)c(F)c1Nc1ccc(I)cc1Cl | 1.13 µM | > 39 µM | 1.63 µM | > 100 µM | 0.641 µM | 9.06 µM | 1.41 µM | 13.2 µM | 0.0546 µM | 0.505 µM | 3.11 µM | 2.63 µM | 44.6 µM | 1.13 µM | 18.6 µM | 2.82 µM | > 100 µM | 3.04 µM | 12.1 µM | 19.1 µM
4 | CN(C)CCCNC(=O)c1cc(NC(=O)c2cc(NC(=O)c3cc(NC(=O)CCc4c[nH]c5ccccc45)cn3C)cn2C)cn1C | > 100 µM | > 100 µM | > 100 µM | > 100 µM | > 100 µM | > 100 µM | > 100 µM | > 100 µM | > 100 µM | > 100 µM | 56.8 µM | > 100 µM | > 100 µM | > 100 µM | > 100 µM | > 100 µM | > 100 µM | > 100 µM | > 100 µM | > 100 µM
5 | S=C(Nc1ccc(Cl)cc1)Nc1ccc(-c2nc3ccccc3[nH]2)cc1 | 7.08 µM | 31.2 µM | 6.55 µM | 23.7 µM | 12.3 µM | 24.7 µM | 14.3 µM | > 54.3 µM | 7.54 µM | > 42 µM | – | 0.757 µM | 4.24 µM | 7.73 µM | 36.1 µM | 12.2 µM | > 68.7 µM | 8.07 µM | > 21.5 µM | > 41.5 µM
6 | O=C1C=Cc2ccccc2/C1=C/c1[nH]c(=O)[nH]c1O | 9.97 µM | > 100 µM | 10.1 µM | > 100 µM | 4.12 µM | 18.3 µM | 19.8 µM | 61.6 µM | 4.42 µM | > 100 µM | 2.4 µM | 3.1 µM | 8.3 µM | 10.5 µM | 85.4 µM | 7.27 µM | > 100 µM | 1.67 µM | 7.83 µM | 15.2 µM
7 | O=C(CCCn1ccnc1[N+](=O)[O-])NCCn1ccnc1 | – | > 100 µM | – | > 100 µM | – | > 100 µM | – | > 100 µM | – | > 100 µM | – | – | > 100 µM | – | > 100 µM | – | > 100 µM | – | > 100 µM | > 100 µM
8 | COC(=O)C(Nc1ccc(OC)cc1)c1ccccc1 (stereo not drawn) | – | > 100 µM | – | > 100 µM | – | > 100 µM | – | > 100 µM | – | > 100 µM | – | – | > 100 µM | – | > 100 µM | – | > 100 µM | – | > 100 µM | > 100 µM
9 | CCN(CC)CCCCCCCNc1c2ccc(Cl)cc2nc2ccc(OC)cc12 | 0.829 µM | 4.93 µM | 1.22 µM | 5.36 µM | 0.285 µM | 0.801 µM | 0.664 µM | 2.69 µM | 1.34 µM | 2.77 µM | 0.356 µM | 0.701 µM | 2.37 µM | 0.991 µM | 4.08 µM | 1.03 µM | 2.5 µM | 0.238 µM | 0.634 µM | 1.59 µM
10 | COc1c(O)ccc2c1CN1CCc3cc4c(cc3C1C2)OCO4 (stereo not drawn) | – | > 79 µM | – | > 84.4 µM | – | > 100 µM | – | > 100 µM | – | > 100 µM | – | – | > 96.6 µM | – | > 79.6 µM | – | > 100 µM | – | > 100 µM | > 63.1 µM
11 | O=C1C(=O)c2ccccc2C(O)=C1C(CCc1ccccc1)C1=C(O)c2ccccc2C(=O)C1=O | – | > 100 µM | – | > 100 µM | – | > 100 µM | – | > 100 µM | – | > 100 µM | – | – | > 100 µM | – | > 100 µM | – | > 100 µM | – | > 100 µM | > 100 µM
12 | CCOC(=O)Oc1c(OC)cc(C(=O)O[C@@H]2C[C@@H]3CN4CCc5c([nH]c6cc(OC)ccc56)[C@H]4C[C@@H]3[C@H](C(=O)OC)[C@H]2OC)cc1OC | 4.16 µM | 21.7 µM | 4.34 µM | 17.7 µM | 1.73 µM | 3.58 µM | 3.41 µM | 14.2 µM | 4.44 µM | 18.9 µM | 4.13 µM | 10.2 µM | 31.4 µM | 14.7 µM | 42.5 µM | 8.07 µM | 27.5 µM | 3.61 µM | > 100 µM | 17.3 µM
